How the values were obtained:
[1] = in vitro; conditions: human, liver microsomes
[2] = in vitro; conditions: human, liver microsomes; remark: listed apart in the source

Row | SMILES | remaining at 0.5 h, 2 µM [1] [%] | remaining at 1 h, 2 µM [2] [%]
1 | Cc1nc2n(c(=O)c1CCN1CCC(c3noc4cc(F)ccc34)CC1)CCCC2 [RISPERIDONE] | 100 | 75
2 | Cc1nc2n(c(=O)c1CCN1CCC(c3noc4cc(F)ccc34)CC1)CCCC2O (centres undefined) [PALIPERIDONE] | 100 | 100

Source: ChEMBL document CHEMBL4043141, “Synthesis and biological investigation of tetrahydropyridopyrimidinone derivatives as potential multireceptor atypical antipsychotics” (Bioorg Med Chem, 2017)
